Several values for one entry are separate records, joined by “and”; a condition that tells them apart may be missing. Equal values may be shown once.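 Five compound concentrations were applied to cells in 96-well plates for 48 hours; endpoints were derived by simple linear interpolation of the resulting dose-response curve. GI50 = concentration required for 50% inhibition of growth. TGI: concentration producing complete growth inhibition.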
What was measured:
Test in all cases: DTP human tumour cell line panel, 48 h
UACC-62 melanoma = system: UACC-62 melanoma
A549 NSCLC = system: A549 NSCLC
SK-OV-3 ovarian = system: SK-OV-3 ovarian
KM12 colon = system: KM12 colon
SW-620 colon = system: SW-620 colon
MALME-3M melanoma = system: MALME-3M melanoma
HOP-62 NSCLC = system: HOP-62 NSCLC
IGROV1 ovarian = system: IGROV1 ovarian
ACHN renal = system: ACHN renal
OVCAR-5 ovarian = system: OVCAR-5 ovarian

Structure (SMILES) | TGI (UACC-62 melanoma) [µM] | TGI (A549 NSCLC) | TGI (SK-OV-3 ovarian) | TGI (KM12 colon) | TGI (SW-620 colon) [µM] | TGI (MALME-3M melanoma) | TGI (HOP-62 NSCLC) [µM] | TGI (IGROV1 ovarian) | TGI (ACHN renal) | GI50 (UACC-62 melanoma) [µM] | GI50 (OVCAR-5 ovarian) | TGI (OVCAR-5 ovarian) | GI50 (A549 NSCLC) | GI50 (SK-OV-3 ovarian) [µM] | GI50 (KM12 colon) [µM] | GI50 (SW-620 colon) [µM] | GI50 (HOP-62 NSCLC) | GI50 (ACHN renal) [µM] | GI50 (MALME-3M melanoma) [µM] | GI50 (IGROV1 ovarian) [µM]
CCOc1c(Br)cc(Br)cc1C=C(C#N)C#N | > 10 | > 10 µM | > 10 µM | > 10 µM | > 10 | > 10 µM | > 10 | > 10 µM | > 10 µM |  |  |  |  |  |  |  |  |  |  | 
CN(C)CCC(=O)Nc1ccc(-n2cc(-c3cccc(NC(=S)Nc4cccc(-c5cn(-c6ccc(NC(=O)CCN(C)C)cc6)nn5)c4)c3)nn2)cc1 | 98.8 | > 100 µM | > 100 µM | 34 µM | > 100 |  | > 100 |  | > 100 µM | 33.3 | 20.6 µM | 52.8 µM | 27.8 µM | > 100 | 10.7 | 4.26 | 33.1 µM | > 100 |  | 
c1cnc2c(c1)-n1cccc1C1(CCCCC1)NN2 |  | > 100 µM |  | > 100 µM | > 100 | > 100 µM | > 100 |  | > 100 µM |  |  | > 100 µM |  |  |  |  |  |  |  | 
COc1cc2c(/C=C3\C(=O)Nc4ccccc43)c[nH]c2cc1C | 7.43 | 17.3 µM | 3.21 µM | 0.824 µM | 39.8 |  | 10.7 |  | 4.51 µM | 0.0775 | 0.62 µM | 19.1 µM | < 0.0289 µM | 0.0856 | 0.239 | < 0.0209 | < 0.01 µM | 1.64 |  | 
O=c1c(-c2ccc3c(c2)OCO3)coc2c3c(ccc12)OCO3 | > 100 | > 100 µM | 40.9 µM | > 100 µM | > 100 |  | 38.2 | 59.7 µM | 38.8 µM |  |  | > 100 µM |  |  |  |  |  |  |  | 
O=C1c2cccc3cccc(c23)C(=O)N1CCCCCN1CCN(CCN=c2cc3n(-c4ccc(Cl)cc4)c4ccccc4nc-3cc2Nc2ccc(Cl)cc2)CC1 | 20.5 | > 50 µM | > 50 µM | 46.3 µM | > 50 | > 50 µM | 23.5 |  | > 50 µM | 7.5 | 10.2 µM | 20.1 µM | 25.9 µM | > 50 | 11.9 | 15.3 | 8.63 µM | 2.88 | 20.8 | 
O=C1CC23CCCCCCCCCCC2(C1)CC(=O)C3 (stereo not drawn) |  | > 100 µM | 65.2 µM | 45 µM | > 100 | 76.1 µM |  | 83 µM | > 100 µM |  |  | 72.1 µM |  |  |  |  |  |  |  | 
Cc1ccccc1NC(=O)CSc1nnc(-c2ccc(N=Cc3ccc(Cl)cc3)cc2)o1 | > 100 | > 100 µM | > 100 µM | > 100 µM | > 100 | > 100 µM | > 100 |  | > 100 µM |  |  |  |  |  |  |  |  |  |  | 
COc1cc(N2C(=O)[C@H](Cl)C2c2ccc(SC)cc2)cc(OC)c1OC (stereo partly drawn) | 91.5 | > 100 µM | > 100 µM | 20.3 µM | > 100 |  | > 100 | > 100 µM | 71.3 µM | 0.0712 | 0.411 µM | > 100 µM | 0.463 µM | 0.588 | 0.0473 | 0.0453 | 0.263 µM | 0.061 |  | 0.0672
C=C1C(=O)O[C@@H]2/C=C(/C)[C@@H](OC(C)=O)C/C=C(\C)C(O)[C@@H](OC(=O)/C(C)=C\C)C12 (stereo partly drawn) | 88.4 | > 100 µM | > 100 µM | > 100 µM | 30.1 |  | > 100 | > 100 µM | 40.8 µM |  |  | > 100 µM |  |  |  |  |  |  |  | 
CC1CCC2C(C)C(=O)OC2C2(C)C(=O)C=CC12 (stereo not drawn) | > 10 | > 10 µM | > 10 µM | > 10 µM | > 10 |  | > 10 | > 10 µM | > 10 µM |  |  | > 10 µM |  |  |  |  |  |  |  | 
OCC(O)C(O)C(O)C(/C=N\Nc1ncnc2c(Br)cc(Br)cc12)=N/Nc1ncnc2c(Br)cc(Br)cc12 (stereo not drawn) |  | 21.6 µM and > 100 µM | 10 µM and > 100 µM | 70.8 µM and > 100 µM | > 100 | 14.4 µM and > 100 µM |  | 10.1 µM and > 100 µM | 33 µM and > 100 µM |  | 5.83 µM and 41.2 µM | 46.1 µM and > 100 µM | 5.04 µM and 15.4 µM |  |  |  | 2.05 µM and 9.09 µM |  |  | 
COc1cc2c(cc1C)NC(=O)/C2=C/c1ccnc2ccccc12 | > 50 | > 50 µM | > 50 µM | > 50 µM | > 50 |  | > 50 | > 50 µM | 25.6 µM | 13.1 | 30 µM | > 50 µM | 20.8 µM | 12.6 | 26.2 | > 50 | > 50 µM | 10.3 |  | 12.6
COc1c2ccoc2nc2c(OC)c(OCC(O)C(C)(C)O)ccc12 (stereo not drawn) | > 100 | > 100 µM | > 100 µM | > 100 µM | > 100 | > 100 µM |  | > 100 µM | > 100 µM |  |  | > 100 µM |  |  |  |  |  |  |  | 
CC1=NN(c2cccc(Cl)c2)C(=O)/C1=C\c1cn(CC(O)CN2CCCCC2)c2ccccc12 (stereo not drawn) | 4.9 | 72.9 µM | 26.6 µM | 8.26 µM | 3.53 |  | 26.5 | 14.6 µM | 14.6 µM | 2.17 | 14.6 µM | 33.9 µM | 24.6 µM | 12.9 | 2.92 | 1.73 | 12.4 µM | 3.18 |  | 2.99
COc1ccc(-c2ccc(C3CC(c4ccccc4)=NN3)o2)c([N+](=O)[O-])c1 (stereo not drawn) | > 100 | > 100 µM | > 100 µM | > 100 µM | > 100 |  | > 100 | > 100 µM | > 100 µM | 67.7 | > 100 µM | > 100 µM | 47.1 µM | 42.5 | 27.3 | 47.5 | 52.7 µM | 57.7 |  | > 100
O=c1c(Cc2ccc3c(c2)OCO3)nnc2sc(-c3cc(F)c(Cl)cc3Cl)nn12 | > 100 | > 100 µM |  | > 100 µM | 49.1 | 85.3 µM | 64.7 | > 100 µM | > 100 µM | 75.8 | 46.6 µM | > 100 µM | 41.8 µM |  | 35.6 | 19.4 | 18.1 µM | 53.8 | 24.7 | 32.3
O=C1NC(O)n2c(=O)[nH]c(=O)n21 (stereo not drawn) | > 100 | > 100 µM | > 100 µM | > 100 µM | > 100 |  | > 100 | > 100 µM | > 100 µM |  |  | > 100 µM |  |  |  |  |  |  |  | 
